The target of this experiment is T1, Multidrug resistance protein 4 (MRP4/ABCC4) (Homo sapiens, UniProt O15439).
T1 construct: recombinant human MRP4-his6 in Sf9 membrane vesicles
T1 sequence (O15439 1-1325): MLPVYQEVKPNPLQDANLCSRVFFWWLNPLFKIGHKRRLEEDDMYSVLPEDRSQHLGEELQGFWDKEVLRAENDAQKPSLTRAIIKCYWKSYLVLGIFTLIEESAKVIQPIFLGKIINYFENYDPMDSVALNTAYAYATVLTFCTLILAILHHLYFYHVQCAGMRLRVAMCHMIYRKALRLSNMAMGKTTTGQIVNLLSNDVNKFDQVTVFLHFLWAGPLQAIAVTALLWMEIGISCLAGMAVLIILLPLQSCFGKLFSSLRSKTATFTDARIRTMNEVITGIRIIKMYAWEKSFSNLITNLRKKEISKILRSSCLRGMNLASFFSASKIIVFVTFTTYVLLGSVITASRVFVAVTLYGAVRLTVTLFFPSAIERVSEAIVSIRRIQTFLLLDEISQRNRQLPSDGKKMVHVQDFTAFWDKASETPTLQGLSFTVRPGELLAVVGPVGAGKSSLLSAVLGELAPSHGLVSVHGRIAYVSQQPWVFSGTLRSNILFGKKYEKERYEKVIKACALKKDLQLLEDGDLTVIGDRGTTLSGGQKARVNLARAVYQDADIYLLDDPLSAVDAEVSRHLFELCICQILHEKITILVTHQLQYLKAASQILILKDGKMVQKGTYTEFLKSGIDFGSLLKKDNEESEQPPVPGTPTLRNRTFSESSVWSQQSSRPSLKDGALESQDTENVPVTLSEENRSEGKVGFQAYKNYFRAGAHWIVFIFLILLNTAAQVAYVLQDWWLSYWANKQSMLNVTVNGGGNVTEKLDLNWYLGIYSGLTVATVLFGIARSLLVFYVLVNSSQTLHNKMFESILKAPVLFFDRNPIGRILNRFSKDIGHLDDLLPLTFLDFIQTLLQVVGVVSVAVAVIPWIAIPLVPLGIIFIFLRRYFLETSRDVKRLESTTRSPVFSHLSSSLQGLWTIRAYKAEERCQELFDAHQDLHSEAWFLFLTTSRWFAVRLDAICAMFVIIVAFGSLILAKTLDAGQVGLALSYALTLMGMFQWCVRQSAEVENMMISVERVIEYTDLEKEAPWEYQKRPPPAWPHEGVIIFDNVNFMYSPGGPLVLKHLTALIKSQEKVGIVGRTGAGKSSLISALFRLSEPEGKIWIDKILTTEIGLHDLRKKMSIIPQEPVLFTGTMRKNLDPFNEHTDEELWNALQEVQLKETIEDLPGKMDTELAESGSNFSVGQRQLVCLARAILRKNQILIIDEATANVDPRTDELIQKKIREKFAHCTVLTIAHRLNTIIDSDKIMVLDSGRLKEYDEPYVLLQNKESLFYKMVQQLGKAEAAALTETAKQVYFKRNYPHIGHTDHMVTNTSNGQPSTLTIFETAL
Briefly: fluorescent vesicular transport assay, ATP-dependent uptake in Sf9 MRP4 membrane vesicles against control vesicles (Km). The class given is biochemical.

As to “8-(2-[fluoresceinyl]aminoethylthio)adenosine-3′,5′-cyclic monophosphate [fluo-cAMP]”, the Km turned out to be 5.8 µM.
